According to patent publication US20080009418A1, “Selective Inhibitors” (Alchemia LTD., priority 2004, published 2008):

Experiments:
Conditions in all cases: compound at 10 μM
[1] = biological target: T1, Human δ-opioid (DOP) (Homo sapiens, UniProt P41143); experiment: Radioligand binding, human δ-opioid (DOP) membranes, FlashPlate, [3H]-Bremazocine
T1 construct: purchased Perkin Elmer Biosignal
Method in brief: (§1)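 Cloned human receptor membranes were coated onto FlashPlate wells and incubated with radioligand and compound (added from a 0.5 mM DMSO daughter plate) for 1 hour at room temperature in the dark. Scintillation counting gave percent inhibition, with DMSO defining total and reference ligand defining non-specific binding.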

[2] = biological target: T2, Human κ-Opioid (KOP) (Homo sapiens, UniProt P41145); experiment: Radioligand binding, human κ-opioid (KOP) membranes, filtration, [3H]-Diprenorphine
T2 construct: purchased Perkin Elmer Biosignal
T2 sequence (P41145 whole entry): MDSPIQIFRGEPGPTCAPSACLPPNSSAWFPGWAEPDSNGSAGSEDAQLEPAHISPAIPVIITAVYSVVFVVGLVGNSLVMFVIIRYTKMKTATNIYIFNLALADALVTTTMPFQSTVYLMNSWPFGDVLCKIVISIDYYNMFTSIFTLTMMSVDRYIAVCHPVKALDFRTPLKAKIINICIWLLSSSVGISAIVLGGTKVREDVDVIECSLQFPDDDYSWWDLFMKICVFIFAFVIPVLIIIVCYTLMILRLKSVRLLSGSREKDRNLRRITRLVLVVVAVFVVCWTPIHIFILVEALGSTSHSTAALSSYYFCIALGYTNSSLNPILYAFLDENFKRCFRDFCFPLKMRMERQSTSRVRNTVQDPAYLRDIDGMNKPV
Method in brief: (§2)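 Filtration binding on cloned human receptor membranes (1 Unit/well), [125I]-Substance P for NK1 and [3H]-Diprenorphine for KOP, 1 h at room temperature. Filters PEI-presoaked, washed with cold 50 mM Tris-HCl pH 7.4, counted by scintillation; percent inhibition calculated, reference ligand defining non-specific binding.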

[3] = biological target: T3, Human Melanocortin (MC3) (Homo sapiens, UniProt P41968); experiment: Radioligand binding, human melanocortin MC3 membranes, FlashPlate, [125I]-NDP-αMSH
T3 construct: purchased Perkin Elmer Biosignal
T3 sequence (P41968 whole entry): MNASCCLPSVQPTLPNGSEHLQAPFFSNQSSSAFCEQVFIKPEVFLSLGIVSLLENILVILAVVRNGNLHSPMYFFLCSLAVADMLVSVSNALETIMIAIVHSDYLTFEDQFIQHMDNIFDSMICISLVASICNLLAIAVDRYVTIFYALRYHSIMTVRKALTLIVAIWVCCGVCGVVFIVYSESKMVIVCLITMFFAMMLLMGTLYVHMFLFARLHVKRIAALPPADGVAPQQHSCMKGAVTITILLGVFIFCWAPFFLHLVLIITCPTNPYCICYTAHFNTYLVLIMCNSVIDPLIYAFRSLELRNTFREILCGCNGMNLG
Method in brief: as §1

[4] = biological target: T4, Human Melanocortin (MC4) (Homo sapiens, UniProt P32245); experiment: Radioligand binding, human melanocortin MC4 membranes, FlashPlate, [125I]-NDP-αMSH
T4 construct: purchased Perkin Elmer Biosignal
T4 sequence (P32245 whole entry): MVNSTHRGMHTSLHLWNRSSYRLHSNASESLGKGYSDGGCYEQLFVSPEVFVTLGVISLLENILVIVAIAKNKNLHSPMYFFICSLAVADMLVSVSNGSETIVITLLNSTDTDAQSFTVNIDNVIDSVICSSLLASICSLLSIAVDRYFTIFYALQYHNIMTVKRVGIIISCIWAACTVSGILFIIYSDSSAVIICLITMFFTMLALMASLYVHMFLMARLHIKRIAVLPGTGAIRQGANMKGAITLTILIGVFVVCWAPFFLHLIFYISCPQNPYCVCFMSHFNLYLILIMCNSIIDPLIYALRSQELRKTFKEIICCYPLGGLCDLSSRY
Method in brief: as §1

[5] = biological target: T5, Human melanocortin (MC5) (Homo sapiens, UniProt P33032); experiment: Radioligand binding, human melanocortin MC5 membranes, FlashPlate, [125I]-NDP-αMSH
T5 construct: purchased Perkin Elmer Biosignal
T5 sequence (P33032 whole entry): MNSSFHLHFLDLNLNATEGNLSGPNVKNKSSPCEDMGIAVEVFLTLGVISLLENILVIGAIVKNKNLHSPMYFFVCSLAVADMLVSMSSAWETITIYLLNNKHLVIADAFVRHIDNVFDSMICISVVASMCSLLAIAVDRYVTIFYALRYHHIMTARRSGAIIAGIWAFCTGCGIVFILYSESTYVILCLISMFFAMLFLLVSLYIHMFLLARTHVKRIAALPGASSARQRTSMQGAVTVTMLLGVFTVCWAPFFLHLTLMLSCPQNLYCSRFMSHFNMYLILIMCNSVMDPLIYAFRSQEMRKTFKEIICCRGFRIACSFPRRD
Method in brief: as §1

[6] = biological target: T6, Human melanin-concentrating hormone (MCH1) (Homo sapiens, UniProt Q99705); experiment: Radioligand binding, human melanin-concentrating hormone MCH1 membranes, FlashPlate, [125I]-S36057
T6 construct: purchased Perkin Elmer Biosignal
T6 sequence (Q99705 whole entry): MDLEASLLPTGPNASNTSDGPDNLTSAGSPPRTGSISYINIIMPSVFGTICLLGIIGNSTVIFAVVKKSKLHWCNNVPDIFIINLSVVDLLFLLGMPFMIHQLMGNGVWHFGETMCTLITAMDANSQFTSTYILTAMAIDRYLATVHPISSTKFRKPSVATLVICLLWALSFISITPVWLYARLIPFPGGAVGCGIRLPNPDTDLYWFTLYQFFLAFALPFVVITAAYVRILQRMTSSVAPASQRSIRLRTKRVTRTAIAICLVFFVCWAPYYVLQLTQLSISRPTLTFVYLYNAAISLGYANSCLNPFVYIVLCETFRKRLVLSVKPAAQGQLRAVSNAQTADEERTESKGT
Method in brief: as §1

[7] = biological target: T7, Human μ-opioid (MOP) (Homo sapiens, UniProt P35372); experiment: Radioligand binding, human μ-opioid (MOP) membranes, FlashPlate, [3H]-Naloxone
T7 construct: purchased Perkin Elmer Biosignal
T7 sequence (P35372 whole entry): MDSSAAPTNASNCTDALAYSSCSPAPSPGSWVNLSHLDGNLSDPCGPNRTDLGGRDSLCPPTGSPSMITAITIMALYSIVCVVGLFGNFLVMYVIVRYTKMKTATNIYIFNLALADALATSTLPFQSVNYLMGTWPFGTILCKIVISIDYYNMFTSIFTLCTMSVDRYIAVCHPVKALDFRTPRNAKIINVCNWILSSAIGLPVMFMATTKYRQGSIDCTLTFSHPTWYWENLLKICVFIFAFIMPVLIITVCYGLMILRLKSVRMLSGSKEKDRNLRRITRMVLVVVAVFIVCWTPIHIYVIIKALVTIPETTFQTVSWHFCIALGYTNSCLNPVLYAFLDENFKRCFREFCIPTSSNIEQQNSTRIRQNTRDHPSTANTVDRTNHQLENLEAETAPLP
Method in brief: as §1

[8] = biological target: T8, Human neurokinin (NK1) (Homo sapiens, UniProt P25103); experiment: Radioligand binding, human neurokinin NK1 membranes, filtration, [125I]-Substance P
T8 construct: purchased Perkin Elmer Biosignal
T8 sequence (P25103 whole entry): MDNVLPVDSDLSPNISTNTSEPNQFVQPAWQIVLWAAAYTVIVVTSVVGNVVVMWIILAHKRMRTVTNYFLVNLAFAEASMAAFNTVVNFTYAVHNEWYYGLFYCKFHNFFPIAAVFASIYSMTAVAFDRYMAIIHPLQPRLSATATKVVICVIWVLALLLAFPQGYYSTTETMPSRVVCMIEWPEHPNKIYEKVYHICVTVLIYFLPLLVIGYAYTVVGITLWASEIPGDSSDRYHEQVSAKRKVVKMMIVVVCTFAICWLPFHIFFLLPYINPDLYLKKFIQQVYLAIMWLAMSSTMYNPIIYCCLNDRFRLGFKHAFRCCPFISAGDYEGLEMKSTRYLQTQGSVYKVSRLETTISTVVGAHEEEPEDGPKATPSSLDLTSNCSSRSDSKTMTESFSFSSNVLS
Method in brief: as §2

[9] = biological target: T9, Human neuropeptide Y (NPY-Y1) (Homo sapiens, UniProt P25929); experiment: Radioligand binding, human neuropeptide Y NPY-Y1 membranes, FlashPlate, [125I]-PYY
T9 construct: purchased Perkin Elmer Biosignal
T9 sequence (P25929 1-384): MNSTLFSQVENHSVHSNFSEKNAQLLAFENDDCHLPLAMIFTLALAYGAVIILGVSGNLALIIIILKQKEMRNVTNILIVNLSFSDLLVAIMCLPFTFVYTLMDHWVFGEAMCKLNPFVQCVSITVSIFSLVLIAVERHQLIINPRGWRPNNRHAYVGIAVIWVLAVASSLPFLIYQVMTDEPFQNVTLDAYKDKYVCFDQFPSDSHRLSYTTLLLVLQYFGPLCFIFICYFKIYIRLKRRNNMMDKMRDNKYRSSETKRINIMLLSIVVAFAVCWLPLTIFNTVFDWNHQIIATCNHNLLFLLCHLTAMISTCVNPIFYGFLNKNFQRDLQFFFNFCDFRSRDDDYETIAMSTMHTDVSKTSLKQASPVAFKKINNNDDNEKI
Method in brief: as §1

[10] = biological target: T10, Human opioid (ORL1) (Homo sapiens, UniProt P41146); experiment: Radioligand binding, human opioid ORL1 membranes, FlashPlate, [125I]-Nociceptin
T10 construct: purchased Perkin Elmer Biosignal
T10 sequence (P41146 whole entry): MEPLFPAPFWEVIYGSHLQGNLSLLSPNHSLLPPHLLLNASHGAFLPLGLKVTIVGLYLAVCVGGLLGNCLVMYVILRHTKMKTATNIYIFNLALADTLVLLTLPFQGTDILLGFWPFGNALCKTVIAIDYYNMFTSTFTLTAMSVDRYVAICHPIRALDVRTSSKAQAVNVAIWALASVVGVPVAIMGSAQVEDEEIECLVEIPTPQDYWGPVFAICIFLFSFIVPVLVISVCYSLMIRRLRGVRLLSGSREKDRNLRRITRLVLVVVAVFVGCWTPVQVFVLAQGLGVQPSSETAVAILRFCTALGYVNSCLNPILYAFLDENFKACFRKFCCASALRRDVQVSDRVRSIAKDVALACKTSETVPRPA
Method in brief: as §1

[11] = biological target: T11, Mouse urotensin (mUR2) (Mus musculus, UniProt Q8VIH9); experiment: Radioligand binding, mouse urotensin mUR2 membranes, FlashPlate, [125I]-Urotensin II
T11 construct: purchased Perkin Elmer Biosignal
T11 sequence (Q8VIH9 1-385): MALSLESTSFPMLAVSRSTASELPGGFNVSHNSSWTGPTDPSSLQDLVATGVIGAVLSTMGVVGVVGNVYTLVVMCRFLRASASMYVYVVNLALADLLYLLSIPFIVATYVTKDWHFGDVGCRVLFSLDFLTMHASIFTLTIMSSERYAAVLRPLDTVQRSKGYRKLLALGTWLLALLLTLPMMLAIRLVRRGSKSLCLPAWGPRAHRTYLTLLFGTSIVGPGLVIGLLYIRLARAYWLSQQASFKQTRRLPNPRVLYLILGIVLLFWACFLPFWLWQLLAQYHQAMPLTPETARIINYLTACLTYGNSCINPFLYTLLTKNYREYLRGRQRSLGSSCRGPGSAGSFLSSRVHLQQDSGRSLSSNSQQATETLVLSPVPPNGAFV
Method in brief: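 Cloned mouse urotensin (mUR2) receptor membranes from Perkin Elmer Biosignal were immobilized in FlashPlate microplates using a proprietary coating. Each well got 19.5 μl buffer, then 0.5 μl of DMSO, reference ligand, or compound. Adding 5 μl of [125I]-Urotensin II, diluted to 5× final concentration in binding buffer, started binding. Plates were sealed with TopSeal-A and incubated 1 hour at room temperature in the dark. Wells were counted for 30 seconds each on a TopCount after a 60-second delay, and percentage inhibition was calculated.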

T1 sequence (P41143 whole entry): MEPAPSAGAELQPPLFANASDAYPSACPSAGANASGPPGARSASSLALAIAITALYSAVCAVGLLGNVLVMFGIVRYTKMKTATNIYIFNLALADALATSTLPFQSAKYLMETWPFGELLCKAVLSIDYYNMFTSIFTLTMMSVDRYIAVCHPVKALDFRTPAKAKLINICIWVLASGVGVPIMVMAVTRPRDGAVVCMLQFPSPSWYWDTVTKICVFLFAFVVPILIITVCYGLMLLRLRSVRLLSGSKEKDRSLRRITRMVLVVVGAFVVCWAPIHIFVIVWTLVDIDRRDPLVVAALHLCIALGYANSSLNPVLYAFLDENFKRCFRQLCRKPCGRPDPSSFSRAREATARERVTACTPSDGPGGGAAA

SMILES: CO[C@H]1[C@H](O)[C@@H](COCc2ccc3ccccc3c2)OC(OCc2ccccc2)[C@@H]1NC(=O)CCNC(=N)N (stereo partly shown) [compound 87]
- A1 radioligand binding inhibition ([1]; human δ-opioid (DOP) membranes): − (“−” indicates less than 50% inhibition at 10 μM)
- A2 radioligand binding inhibition ([2]; human κ-opioid (KOP) membranes): − (“−” indicates less than 50% inhibition at 10 μM)
- A3 radioligand binding inhibition ([3]; human melanocortin MC3 membranes): − (“−” indicates less than 50% inhibition at 10 μM)
- A4 radioligand binding inhibition ([4]; human melanocortin MC4 membranes): − (“−” indicates less than 50% inhibition at 10 μM)
- A5 radioligand binding inhibition ([5]; human melanocortin MC5 membranes): − (“−” indicates less than 50% inhibition at 10 μM)
- A6 radioligand binding inhibition ([6]; human MCH1 membranes): − (“−” indicates less than 50% inhibition at 10 μM)
- A7 radioligand binding inhibition ([7]; human μ-opioid (MOP) membranes): − (“−” indicates less than 50% inhibition at 10 μM)
- A8 radioligand binding inhibition ([8]; human neurokinin NK1 membranes): + (“+” indicates greater than 50% inhibition at 10 μM)
- A9 radioligand binding inhibition ([9]; human NPY-Y1 membranes): − (“−” indicates less than 50% inhibition at 10 μM)
- A10 radioligand binding inhibition ([10]; human ORL1 membranes): − (“−” indicates less than 50% inhibition at 10 μM)
- A11 radioligand binding inhibition ([11]; mouse urotensin mUR2 membranes): − (“−” indicates less than 50% inhibition at 10 μM)

SMILES: NCCC(=O)N[C@H]1C(OCc2ccc3ccccc3c2)O[C@H](COCc2ccc3ccccc3c2)[C@@H](O)[C@@H]1OCc1ccc(Cl)cc1 (stereo partly shown) [compound 437]
- A1: inhibition of radioligand binding ([1]; [3H]-Bremazocine, human DOP membranes): − (“−” indicates less than 50% inhibition at 10 μM)
- A2: inhibition of radioligand binding ([2]; [3H]-Diprenorphine, human KOP membranes): − (“−” indicates less than 50% inhibition at 10 μM)
- A3: inhibition of radioligand binding ([3]; [125I]-NDP-αMSH, human MC3 membranes): + (“+” indicates greater than 50% inhibition at 10 μM)
- A4: inhibition of radioligand binding ([4]; [125I]-NDP-αMSH, human MC4 membranes): + (“+” indicates greater than 50% inhibition at 10 μM)
- A5: inhibition of radioligand binding ([5]; [125I]-NDP-αMSH, human MC5 membranes): + (“+” indicates greater than 50% inhibition at 10 μM)
- A6: inhibition of radioligand binding ([6]; [125I]-S36057, human MCH1 membranes): + (“+” indicates greater than 50% inhibition at 10 μM)
- A7: inhibition of radioligand binding ([7]; [3H]-Naloxone, human MOP membranes): − (“−” indicates less than 50% inhibition at 10 μM)
- A8: inhibition of radioligand binding ([8]; [125I]-Substance P, human NK1 membranes): + (“+” indicates greater than 50% inhibition at 10 μM)
- A9: inhibition of radioligand binding ([9]; [125I]-PYY, human NPY-Y1 membranes): − (“−” indicates less than 50% inhibition at 10 μM)
- A10: inhibition of radioligand binding ([10]; [125I]-Nociceptin, human ORL1 membranes): − (“−” indicates less than 50% inhibition at 10 μM)
- A11: inhibition of radioligand binding ([11]; [125I]-Urotensin II, mouse mUR2 membranes): − (“−” indicates less than 50% inhibition at 10 μM)

SMILES: CO[C@H]1[C@H](O)[C@@H](COCc2ccc(Cl)cc2)OC(OCc2cccc(O)c2)[C@@H]1NC(=O)CCCN (stereo partly shown) [compound 169]
- A1 radioligand binding, percentage inhibition ([1]; [3H]-Bremazocine): − (“−” indicates less than 50% inhibition at 10 μM)
- A2 radioligand binding, percentage inhibition ([2]; [3H]-Diprenorphine): − (“−” indicates less than 50% inhibition at 10 μM)
- A3 radioligand binding, percentage inhibition ([3]; [125I]-NDP-αMSH): − (“−” indicates less than 50% inhibition at 10 μM)
- A4 radioligand binding, percentage inhibition ([4]; [125I]-NDP-αMSH): − (“−” indicates less than 50% inhibition at 10 μM)
- A5 radioligand binding, percentage inhibition ([5]; [125I]-NDP-αMSH): − (“−” indicates less than 50% inhibition at 10 μM)
- A6 radioligand binding, percentage inhibition ([6]; [125I]-S36057): − (“−” indicates less than 50% inhibition at 10 μM)
- A7 radioligand binding, percentage inhibition ([7]; [3H]-Naloxone): − (“−” indicates less than 50% inhibition at 10 μM)
- A8 radioligand binding, percentage inhibition ([8]; [125I]-Substance P): + (“+” indicates greater than 50% inhibition at 10 μM)
- A9 radioligand binding, percentage inhibition ([9]; [125I]-PYY): − (“−” indicates less than 50% inhibition at 10 μM)
- A10 radioligand binding, percentage inhibition ([10]; [125I]-Nociceptin): − (“−” indicates less than 50% inhibition at 10 μM)
- A11 radioligand binding, percentage inhibition ([11]; [125I]-Urotensin II): − (“−” indicates less than 50% inhibition at 10 μM)

SMILES: NCCCC(=O)NC1C(OCc2ccc(Cl)cc2)OC(COCc2ccc(Cl)cc2)C(O)C1OCc1ccccc1 (single isomer, unassigned) [compound 506]
- A1: inhibition of radioligand binding, human δ-opioid (DOP) ([1]; [3H]-Bremazocine): − (“−” indicates less than 50% inhibition at 10 μM)
- A2: inhibition of radioligand binding, human κ-opioid (KOP) ([2]; [3H]-Diprenorphine): − (“−” indicates less than 50% inhibition at 10 μM)
- A3: inhibition of radioligand binding, human melanocortin (MC3) ([3]; [125I]-NDP-αMSH): − (“−” indicates less than 50% inhibition at 10 μM)
- A4: inhibition of radioligand binding, human melanocortin (MC4) ([4]; [125I]-NDP-αMSH): − (“−” indicates less than 50% inhibition at 10 μM)
- A5: inhibition of radioligand binding, human melanocortin (MC5) ([5]; [125I]-NDP-αMSH): + (“+” indicates greater than 50% inhibition at 10 μM)
- A6: inhibition of radioligand binding, human melanin-concentrating hormone (MCH1) ([6]; [125I]-S36057): − (“−” indicates less than 50% inhibition at 10 μM)
- A7: inhibition of radioligand binding, human μ-opioid (MOP) ([7]; [3H]-Naloxone, 10 µM): − (“−” indicates less than 50% inhibition at 10 μM)
- A8: inhibition of radioligand binding, human neurokinin (NK1) ([8]; [125I]-Substance P): + (“+” indicates greater than 50% inhibition at 10 μM)
- A9: inhibition of radioligand binding, human neuropeptide Y (NPY-Y1) ([9]; [125I]-PYY): − (“−” indicates less than 50% inhibition at 10 μM)
- A10: inhibition of radioligand binding, human opioid (ORL1) ([10]; [125I]-Nociceptin, 10 µM): + (“+” indicates greater than 50% inhibition at 10 μM)
- A11: inhibition of radioligand binding, mouse urotensin (mUR2) ([11]; [125I]-Urotensin II): − (“−” indicates less than 50% inhibition at 10 μM)

SMILES: CO[C@H]1[C@H](O)[C@@H](COCc2ccccc2)OC(OCCNC(=N)N)[C@@H]1NC(=O)c1c[nH]c2ccccc12 (stereo partly shown) [compound 125]
- A1 radioligand binding, percentage inhibition ([1]; [3H]-Bremazocine): − (“−” indicates less than 50% inhibition at 10 μM)
- A2 radioligand binding, percentage inhibition ([2]; [3H]-Diprenorphine): − (“−” indicates less than 50% inhibition at 10 μM)
- A3 radioligand binding, percentage inhibition ([3]; [125I]-NDP-αMSH): − (“−” indicates less than 50% inhibition at 10 μM)
- A4 radioligand binding, percentage inhibition ([4]; [125I]-NDP-αMSH): − (“−” indicates less than 50% inhibition at 10 μM)
- A5 radioligand binding, percentage inhibition ([5]; [125I]-NDP-αMSH): − (“−” indicates less than 50% inhibition at 10 μM)
- A6 radioligand binding, percentage inhibition ([6]; [125I]-S36057): − (“−” indicates less than 50% inhibition at 10 μM)
- A7 radioligand binding, percentage inhibition ([7]; [3H]-Naloxone): − (“−” indicates less than 50% inhibition at 10 μM)
- A8 radioligand binding, percentage inhibition ([8]; [125I]-Substance P): + (“+” indicates greater than 50% inhibition at 10 μM)
- A9 radioligand binding, percentage inhibition ([9]; [125I]-PYY): − (“−” indicates less than 50% inhibition at 10 μM)
- A10 radioligand binding, percentage inhibition ([10]; [125I]-Nociceptin): − (“−” indicates less than 50% inhibition at 10 μM)
- A11 radioligand binding, percentage inhibition ([11]; [125I]-Urotensin II): − (“−” indicates less than 50% inhibition at 10 μM)
